One may read the melting point as the temperature of the solid-liquid transition.

Conditions in one series: not given
Regarding `O=C(Nc1ccncc1)c1n[nH]c2ccc(I)cc12`, the melting point is > 260 °C. `O=C(Nc1ccncc1)c1n[nH]c2ccc([N+](=O)[O-])cc12`: the melting point was > 260 °C. Still for that read-out and setting: the value for `O=C(Nc1ccc(Nc2ccccc2)cc1)c1n[nH]c2ccccc12` [Compound No. 4, N-(4-Phenylaminophenyl)-1H-indazole-3-carboxamide] was 218 °C; that for `O=C(O)c1cccc(NC(=O)c2n[nH]c3ccccc23)c1` was > 250 °C; that for `O=C(NCCCn1ccnc1)c1n[nH]c2ccccc12` was 154 to 155 °C.

Turning to `CCOC(=O)c1cccc(NC(=O)c2n[nH]c3ccccc23)c1`, the melting point fell in the range of 187 to 188 °C.

For a further series the following is noted: prior art; cited from earlier work.
`Cc1ccc(CNC(=O)c2n[nH]c3ccccc23)cc1` [N-(4-Methylbenzyl)-1H-indazole-3-carboxamide]: the pharmacological activity entry was “no pharmacological activity”.

(Values after US7482342B2, “Indazolecarboxamide derivatives, preparation and use thereof as CDK1, CDK2 and CDK4 inhibitors” (sanofi-aventis, priority 2002, dated 2009).)
